The conditions of series [1]: cited from earlier work.
Series [2] in a line: Drug loading and encapsulation efficiency of liposome suspensions (G-25 column separation, HPLC). Format: physicochemical.
Experimental: Liposome colloidal suspensions were prepared by ethanol injection technique. […] (DSPE-PEG2000) were dissolved in 2.86 ml of ethanol. The lipid solution in ethanol was injected into 17.4 ml of sodium acetate (200 mM or 400 mM) with vigorous stirring at 60° C. Liposomes were formed as soon as the lipid solution was in contact with sodium acetate. This was followed by extruding the liposome suspension through a 200 nm and a 100 nm polycarbonate membrane (six times, respectively). The liposome with about 100 nm was obtained and diafiltrated against a citrate buffer (pH 5.5) to form a higher inside/lower outside pH gradient between the external medium and the internal aqueous medium of the liposomes. The empty liposome suspension was then stored at 4° C. before drug loading process.
PGE1 (alprostadil) was added to the liposome suspension in the preceding paragraph at various drug/lipid molar ratios at room temperature (25° C.) for 20 min. The PGE1 loaded liposome suspension was stored at 4° C.
The liposome suspension was prepared according to the method described in Section 1.1, except that sodium acetate (200 mM or 400 mM) was replaced by sodium bicarbonate (e.g. 200 mM, 400 mM or other concentrations).
The amount of the drug encapsulated into the liposome was quantified using Waters Alliance® HPLC system with a Photodiode Array (PDA) Detector. […] Separation was performed in C18 Column (Phenomenex Prodigy 5U ODS-3 150×4.6 mm), and then post-reaction was carried out by mixed with IN of KOH at 65° C. The peak of the drug e.g. PGE1 was detected at 280 nm. The retention time was about 4.6 minutes.
Encapsulation efficiency (EE), i.e. the percentage of the drug encapsulated (or loaded) in the internal aqueous medium of the liposomes to the total amount of the drug present in the liposome suspension (i.e. drug in the external medium and drug loaded into the internal aqueous medium of the liposomes) was quantified as follows. Briefly, the liposome suspension was subjected to column chromatography. The free or non-associated drug (i.e. the drug in the external medium) and the liposomes containing the encapsulated drugs in the internal aqueous medium were separated from each other by eluting the liposome suspension through a G-25 column. The amount of the free drug was determined using Waters HPLC with PDA detection, and the amount of the encapsulated drug in the internal aqueous medium of the liposome, after destructing the liposomes with methanol (90% methanol and 10% liposome suspension), was also determined using the same method. The encapsulation efficiency was calculated using the following formula,
[formula] where L is the amount of the encapsulated drug in the internal aqueous medium of the liposomes, and F is the amount of the free drug in the external medium.
In addition, the internal drug concentration (mM) was calculated as follows. Internal drug concentration (mM)=[Drug [μg/mL]×EE %/molecular weight]/[trapped volume*]
[3] abbreviates: liposomal formulation (4-2) HSPC:cholesterol:DSPG 3:2:0.075, internal bicarbonate salt 400 mM, drug loading at 40° C.
The mark [4] stands for this setting: liposomal formulation (4-1) HSPC:cholesterol:DSPE-mPEG2000 3:2:0.075, internal bicarbonate salt 200 mM, drug loading at 25° C.
The mark [5] stands for this setting: liposomal formulation (4-1) HSPC:cholesterol:DSPE-mPEG2000 3:2:0.075, internal bicarbonate salt 400 mM, drug loading at 25° C.
[6] abbreviates: liposomal formulation (4-1) HSPC:cholesterol:DSPE-mPEG2000 3:2:0.075, internal bicarbonate salt 400 mM, drug loading at 40° C.

A word on the pKa: it is the pH at which an ionisable group is half protonated. Take `C[C@]12CCC(=O)C=C1CC[C@@H]1[C@@H]2[C@@H](O)C[C@@]2(C)[C@H]1CC[C@]2(O)C(=O)COC(=O)CCC(=O)O` [Hydrocortisone sodium succinate]: the pKa in series [1] is recorded as 3.66.

Turning to `CC(C)N(CCCCOCC(=O)O)c1cnc(-c2ccccc2)c(-c2ccccc2)n1` [MIRE-269 (ACT-333679)], in series [2] (setting [3]), the E.E. was determined as 98.7%, the “Internal [drug]” value was found to be 65.41 mM, the “Internal drug to internal salt molar ratio” value was 0.164 and the “Measured [drug]” value was 174.6 µg/mL. Moreover, in series [1], the pKa was 3.77.

Turning to `CC#CCC(C)[C@H](O)/C=C/[C@@H]1[C@H]2C/C(=C/CCCC(=O)O)C[C@H]2C[C@H]1O` (stereo partly drawn) [Iloprost], in series [2] (setting [3]), the E.E. came to 97.4%, the “Internal [drug]” value was determined as 170.34 mM, the “Internal drug to internal salt molar ratio” value was 0.426 and the “Measured [drug]” value was determined as 395.9 µg/mL. The pKa in series [1] is recorded as 4.66.

Regarding `CC#CCC(C)[C@H](O)/C=C/[C@@H]1[C@H]2c3cccc(CCCC(=O)O)c3O[C@H]2C[C@H]1O` (mixture of isomers) [Beraprost], the pKa in series [1] is 4.2.

Take `O=C(c1ccccc1)c1ccc2n1CCC2C(=O)O` (stereo not drawn) [Ketorolac]: in series [2] (setting [4]), the E.E. came out at 91.0%, the “Internal [drug]” value is 87.06 mM, the “Internal drug to internal salt molar ratio” value is given as 0.435 and the “Measured [drug]” value stood at 766.8 µg/mL. For the same molecule, in series [2] (setting [5]), the E.E. is 91.2%, the “Internal [drug]” value was found to be 135.71 mM, the “Internal drug to internal salt molar ratio” value was determined as 0.339 and the “Measured [drug]” value is 1192.7 µg/mL.

Turning to `C[C@H]1C[C@@H]2[C@H]([C@@H](O)C[C@@]3(C)[C@H]2CC[C@]3(O)C(=O)COC(=O)CCC(=O)O)[C@@]2(C)C=CC(=O)C=C12` [Methylprednisolone Hemisuccinate (MPSS), Methylprednisolone Hemisuccinate], in series [2] (setting [6]), the E.E. is on record as 85.9%, the “Internal [drug]” value is 65.27 mM, the “Internal drug to internal salt molar ratio” value came to 0.163 and the “Measured [drug]” value is 1132.2 µg/mL. In series [1], the pKa was 4.29.

For the molecule `CN1C(C(=O)Nc2ccccn2)=C(O)c2ccccc2S1(=O)=O` [Piroxicam], in series [2] (setting [6]), the E.E. worked out at 84.5%, the “Internal [drug]” value is listed as 76.72 mM, the “Internal drug to internal salt molar ratio” value was found to be 0.192 and the “Measured [drug]” value was found to be 944.7 µg/mL. In addition, the pKa in series [1] is recorded as 4.8.

Consider `CC1(C)[C@@H](OC(=O)CCC(=O)O)CC[C@]2(C)[C@H]3C(=O)C=C4[C@@H]5C[C@@](C)(C(=O)O)CC[C@]5(C)CC[C@@]4(C)[C@]3(C)CC[C@@H]12` [Carbenoxolone sodium], for which, in series [1], the pKa is listed as 4.7.

Take `O=C(O)COC(=O)Cc1ccccc1Nc1c(Cl)cccc1Cl` [Aceclofenac]: the pKa in series [1] is 4.7.

As to `C[C@H]1C[C@@H]2[C@H]([C@@H](O)C[C@@]3(C)[C@H]2CC[C@]3(O)C(=O)COC(=O)CCC(=O)O)[C@@]2(C)C=CC(=O)C=C12` [Methylprednisolone sodium succinate], the pKa in series [1] is reported as 4.6.

Consider `O=C(O)CCc1nc(-c2ccccc2)c(-c2ccccc2)o1` [Oxaprozin], for which, in series [1], the pKa is 4.95.

In the case of `C[C@@H]1C[C@H]2[C@@H]3CCC4=CC(=O)C=C[C@]4(C)[C@@]3(F)[C@@H](O)C[C@]2(C)[C@@]1(O)C(=O)COP(=O)(O)O` [Dexamethasone sodium phosphate], the pKa in series [1] was 1.89.

Regarding `CCCCC[C@H](O)/C=C/[C@@H]1[C@H]2C/C(=C/CCCC(=O)O)O[C@H]2C[C@H]1O` [Epoprostenol], the pKa in series [1] was 4.43.

Consider `O=C(Oc1ccccc1C(=O)O)c1ccccc1O` [Salsalate (Disalcid), Salsalate], for which the pKa in series [1] was 3.4.

Turning to `CCCCC[C@H](O)/C=C/[C@H]1[C@H](O)CC(=O)[C@@H]1C/C=C\CCCC(=O)O` [Prostaglandin E2 (PGE2), Prostaglandin E2], in series [1], the pKa is 4.3.

As to `O=C(c1ccccc1)c1ccc2n1CCC2C(=O)O` (stereo not drawn) [Ketorolac sodium], the pKa in series [1] is reported as 3.8.

On to `O=C(O)COC[C@H]1CC[C@H](COC(=O)N(c2ccccc2)c2ccc(Cl)cc2)CC1` [Ralinepag (APD811), Ralinepag], for which the pKa in series [1] is on record as 3.5.

Regarding `CN1C(C(=O)Nc2ccccn2)=C(O)c2sc(Cl)cc2S1(=O)=O` [Lornoxicam], in series [2] (setting [6]), the E.E. was 93.3%, the “Internal [drug]” value came to 88.41 mM, the “Internal drug to internal salt molar ratio” value came to 0.221 and the “Measured [drug]” value is 1106.3 µg/mL. Further, the pKa in series [1] is 1.8.

Values taken from patent publication US12551437B2, “Liposome compositions comprising weak acid drugs and uses thereof” (Pharmosa Biopharm Inc., priority 2017, dated 2026).
